The target of experiment [1] is Melanocyte-stimulating hormone receptor (Homo sapiens, UniProt Q01726). The experiment can be described thus: Binding affinity towards Melanocortin 1 receptor, expressed as negative log of the Ki value.
For the next experiment, the target named is Melanocortin receptor 4 (Homo sapiens, UniProt P32245). The experiment can be described thus: Binding affinity towards Melanocortin 4 receptor, expressed as negative log of the Ki value.
The next experiment deals with Melanocortin receptor 3 (Homo sapiens, UniProt P41968). The experiment can be described thus: Binding affinity towards Melanocortin 3 receptor, expressed as negative log of the Ki value.
A further experiment deals with Melanocortin receptor 5 (Homo sapiens, UniProt P33032). The experiment can be described thus: Binding affinity towards Melanocortin 5 receptor, expressed as negative log of the Ki value.

Here are results for four compounds from ChEMBL document CHEMBL1145800, “QSAR and proteo-chemometric analysis of the interaction of a series of organic compounds with melanocortin receptor subtypes” (J Med Chem, 2003).

Chain of Melanocortin receptor 4 (P32245 whole entry): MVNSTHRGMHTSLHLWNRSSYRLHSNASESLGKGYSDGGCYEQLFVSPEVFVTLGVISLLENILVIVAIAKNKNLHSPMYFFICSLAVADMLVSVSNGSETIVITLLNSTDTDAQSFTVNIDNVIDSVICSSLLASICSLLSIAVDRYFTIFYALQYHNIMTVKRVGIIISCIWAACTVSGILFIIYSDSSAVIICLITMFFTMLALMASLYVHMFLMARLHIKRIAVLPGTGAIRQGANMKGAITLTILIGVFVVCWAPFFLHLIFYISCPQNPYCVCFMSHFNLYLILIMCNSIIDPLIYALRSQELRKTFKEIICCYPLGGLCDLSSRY
Chain of Melanocortin receptor 3 (P41968 whole entry): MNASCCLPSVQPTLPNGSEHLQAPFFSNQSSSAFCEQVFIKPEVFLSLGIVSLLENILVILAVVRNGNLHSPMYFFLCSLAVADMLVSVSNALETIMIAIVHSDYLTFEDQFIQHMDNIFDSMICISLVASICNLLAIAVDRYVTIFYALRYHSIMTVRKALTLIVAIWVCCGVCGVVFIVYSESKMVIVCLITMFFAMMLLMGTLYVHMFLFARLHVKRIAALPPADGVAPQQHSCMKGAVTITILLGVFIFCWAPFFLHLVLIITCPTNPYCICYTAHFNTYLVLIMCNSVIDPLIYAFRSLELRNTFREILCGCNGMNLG
Chain of Melanocyte-stimulating hormone receptor (Q01726 whole entry): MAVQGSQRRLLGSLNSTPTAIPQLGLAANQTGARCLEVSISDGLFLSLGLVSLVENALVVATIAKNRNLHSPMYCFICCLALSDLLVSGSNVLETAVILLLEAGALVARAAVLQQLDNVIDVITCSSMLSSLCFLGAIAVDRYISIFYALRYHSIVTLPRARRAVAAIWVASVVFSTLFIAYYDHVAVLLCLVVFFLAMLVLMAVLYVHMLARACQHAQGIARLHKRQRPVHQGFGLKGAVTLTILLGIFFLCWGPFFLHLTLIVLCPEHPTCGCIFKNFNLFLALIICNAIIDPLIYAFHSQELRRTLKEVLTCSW
Chain of Melanocortin receptor 5 (P33032 whole entry): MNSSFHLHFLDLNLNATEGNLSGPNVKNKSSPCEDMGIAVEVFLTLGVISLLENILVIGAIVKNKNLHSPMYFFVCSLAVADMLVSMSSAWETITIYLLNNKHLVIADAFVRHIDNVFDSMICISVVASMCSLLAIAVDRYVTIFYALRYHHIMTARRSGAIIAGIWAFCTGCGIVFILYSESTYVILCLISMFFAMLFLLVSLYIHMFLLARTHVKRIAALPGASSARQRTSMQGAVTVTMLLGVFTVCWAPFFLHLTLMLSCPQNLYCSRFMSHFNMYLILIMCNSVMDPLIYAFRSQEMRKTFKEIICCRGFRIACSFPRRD

With `NC(N)=NCCC[C@H](N)C(=O)N(Cc1ccc2ccccc2c1)Cc1cccc2ccccc12`, the figures for the Ki (in experiment [1]; at Melanocortin receptor 4; at Melanocortin receptor 3) were 0.631 µM, 5.01 µM and 7.94 µM, respectively.

Turning to `NCCCNC(=O)[C@H](CNCc1c[nH]c2ccccc12)NCc1ccc2ccccc2c1`, the inhibitory constant (Ki) on Melanocortin receptor 5 is 39.8 µM; in experiment [1] it was 0.631 µM; at Melanocortin receptor 4 it was 25.1 µM; at Melanocortin receptor 3 it was 50.1 µM.

For `N=C(N)NCCCNC(=O)[C@H](CCCN=C(N)N)NCc1ccc2ccccc2c1`, the Ki is 1000 µM on Melanocortin receptor 5, 3.98 µM in experiment [1], 31.6 µM at Melanocortin receptor 4 and 5.01 µM at Melanocortin receptor 3.

Turning to `NCCCCCC(=O)N(Cc1ccc2ccccc2c1)Cc1cccc2ccccc12`, the Ki at Melanocortin receptor 5 was 3.98 µM; in experiment [1], 1.58 µM; on Melanocortin receptor 4, 2 µM; at Melanocortin receptor 3 it was 31.6 µM.
